Measurements: patent US9302999B2, “Substituted triazoles as herbicides” (E. I. DU PONT DE NEMOURS AND COMPANY, priority 2012, dated 2016)

How the values were obtained:
Type in all cases: in vivo
[1] = system: ducksalad (Heteranthera limosa); assay: Test C flooded paddy test: ducksalad; conditions: scale 0 to 100 (0 no effect, 100 complete control)
Method in brief: (§1)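 Rating: visual, 0–100 (100 = complete control), versus untreated controls after 13 to 15 greenhouse days. Treatment went into paddy water held at 3 cm over the soil, on plants grown to two leaves.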

rice (Oryza sativa) = assay: Test C flooded paddy test: rice; conditions: scale 0 to 100 (0 no effect, 100 complete control)
Method in brief: as §1

[2] = system: morningglory (Ipomoea spp.); assay: Test A pre-/postemergence: morningglory; conditions: Postemergence
Method in brief: (§2)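 Plants in loam–sand blend were treated with test chemicals in non-phytotoxic solvent with surfactant, either as preemergence directed soil spray or postemergence at 2–10 cm, one- to two-leaf stage. After about ten days in greenhouse, injury was rated visually against untreated controls on a 0–100 scale (100 = complete control).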

[3] = system: velvetleaf (Abutilon theophrasti); assay: Test A pre-/postemergence: velvetleaf; conditions: for Velvetleaf plant response rating: Postemergence; for Plant response rating, Velvetleaf: Preemergence
Method in brief: as §2

[4] = system: sedge, umbrella (small-flower umbrella sedge, Cyperus difformis); assay: Test C flooded paddy test: sedge, umbrella; conditions: scale 0 to 100 (0 no effect, 100 complete control)
Method in brief: as §1

[5] = system: foxtail, giant (giant foxtail, Setaria faberii); assay: Test A pre-/postemergence: foxtail, giant; conditions: for Foxtail, Giant plant response rating: Postemergence; for Plant response rating, Foxtail, Giant: Preemergence
Method in brief: as §2

[6] = system: barnyardgrass (Echinochloa crus-galli); assay: Test A pre-/postemergence: barnyardgrass; conditions: for Barnyardgrass plant response rating: Postemergence; for Plant response rating, Barnyardgrass: Preemergence
Method in brief: as §2

[7] = system: crabgrass, large (large crabgrass, Digitaria sanguinalis); assay: Test A pre-/postemergence: crabgrass, large; conditions: for Crabgrass, Large plant response rating: Postemergence; for Plant response rating, Crabgrass, Large: Preemergence
Method in brief: as §2

[8] = system: pigweed (Amaranthus retroflexus); assay: Test A pre-/postemergence: pigweed; conditions: for Pigweed plant response rating: Postemergence; for Plant response rating, Pigweed: Preemergence
Method in brief: as §2

[9] = system: barnyardgrass (Echinochloa crus-galli); assay: Test C flooded paddy test: barnyardgrass; conditions: scale 0 to 100 (0 no effect, 100 complete control)
Method in brief: as §1

[10] = system: wheat (Triticum aestivum); assay: Test A pre-/postemergence: wheat; conditions: for Wheat plant response rating: Postemergence; for Plant response rating, Wheat: Preemergence
Method in brief: as §2

corn (Zea mays) = assay: Test A pre-/postemergence: corn; conditions: for Corn plant response rating: Postemergence; for Plant response rating, Corn: Preemergence
Method in brief: as §2

[11] = Flood (flooded paddy test), 62 g ai/ha, visual rating after 13 to 15 days
[12] = Flood (flooded paddy test), 125 g ai/ha, visual rating after 13 to 15 days
[13] = Flood (flooded paddy test), 250 g ai/ha, visual rating after 13 to 15 days
[14] = 125 g ai/ha, 0 to 100 scale, 0 is no effect, 100 is complete control
[15] = 500 g ai/ha, visual rating on 0 to 100 scale (0 no effect, 100 complete control), approximately ten days
[16] = 125 g ai/ha, 0 to 100 scale (0 no effect, 100 complete control)
[17] = 500 g ai/ha, 0 to 100 scale, 0 is no effect, 100 is complete control

COc1nn(-c2ccc(C(F)(F)F)cc2)nc1C(=O)c1ccnc(C(F)(F)F)c1 [Compound 75]
70: Plant response rating, Crabgrass, Large [7, 17]
50: Plant response rating, Foxtail, Giant [5, 16]
60: Pigweed plant response rating [8, 15]
90: Plant response rating, Foxtail, Giant [5, 17]
10: Velvetleaf plant response rating [3, 14] | Velvetleaf plant response rating [3, 15] | Foxtail, Giant plant response rating [5, 14] | Barnyardgrass plant response rating [6, 15] | Plant response rating, Barnyardgrass [6, 16] | Crabgrass, Large plant response rating [7, 14] | Plant response rating, Wheat [10, 17] | Corn plant response rating (corn (Zea mays); [15])
40: Plant response rating, Pigweed [8, 17]
0: Plant response rating, Ducksalad [1, 11] | Plant response rating, Ducksalad [1, 12] | Plant response rating, Ducksalad [1, 13] | Plant response rating, Ducksalad ([1]; Flood, 31 g ai/ha) | Plant response rating, Rice (rice (Oryza sativa); [11]) | Plant response rating, Rice (rice (Oryza sativa); [12]) | Plant response rating, Rice (rice (Oryza sativa); [13]) | Plant response rating, Rice (rice (Oryza sativa); Flood, 31 g ai/ha) | Morningglory plant response rating [2, 14] | Plant response rating, Velvetleaf [3, 16] | Plant response rating, Velvetleaf [3, 17] | Plant response rating, Sedge, Umbrella [4, 11] | Plant response rating, Sedge, Umbrella [4, 12] | Plant response rating, Sedge, Umbrella [4, 13] | Plant response rating, Sedge, Umbrella ([4]; Flood, 31 g ai/ha) | Barnyardgrass plant response rating [6, 14] | Plant response rating, Barnyardgrass [9, 11] | Plant response rating, Barnyardgrass [9, 12] | Plant response rating, Barnyardgrass [9, 13] | Plant response rating, Barnyardgrass ([9]; Flood, 31 g ai/ha) | Wheat plant response rating [10, 14] | Wheat plant response rating [10, 15] | Plant response rating, Wheat [10, 16] | Corn plant response rating (corn (Zea mays); [14]) | Plant response rating, Corn (corn (Zea mays); [16]) | Plant response rating, Corn (corn (Zea mays); [17])
30: Morningglory plant response rating [2, 15] | Pigweed plant response rating [8, 14] | Plant response rating, Pigweed [8, 16]
20: Foxtail, Giant plant response rating [5, 15] | Plant response rating, Barnyardgrass [6, 17] | Crabgrass, Large plant response rating [7, 15] | Plant response rating, Crabgrass, Large [7, 16]
